Reference: patent US10457655B2, “Compounds and compositions for inhibition of FASN” (FORMA Therapeutics, Inc., priority 2013, dated 2019)
pIC50: −log10 of the molar value. Read-outs that look alike come from different tables or passages of the source.

Experiments:
[1] = target: FASN enzyme (Homo sapiens, UniProt P49327); experiment: Enzymatic Assay for FASN Inhibitors; assay type: biochemical
Outline: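 40 nM FASN preincubated with compound 60 min at 25° C in HEPES pH 7.3 buffer with 0.04% Triton X-100. Then 20 μM acetyl-CoA, 60 μM malonyl-CoA and 100 μM NADPH added for 90 min, quenched with CPM thiol probe; fluorescence 360/530 nm, IC50 by four-parameter fit.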

[2] = test system: PC3 cells; experiment: Cell Proliferation Assays for FASN Inhibitors (PC3 cells, MTT); assay type: cell-based; settings: Homo sapiens, PC-3, 96 h, read-out: IC50 (uM) < 0.5, 10% lipid reduced serum, 4 days, Table 3-1
Description: The effects of the FASN inhibitors on cultured cancer cell proliferation were studies with cell proliferation assays. PC3 cells were maintained at standard culture media (F12K media supplemented with 10% fetal bovine serum, 1×MEM nonessential amino acid and 1× penicillin/streptomycin). 2000-3000 cells/100 μL/well was seeded in a 96-well clear culture plate. The cells were incubated overnight in 5% CO2 at 37° C. for attachment. Cell media were removed and replaced with F12K media containing 10% lipid reduced serum and compound. The final DMSO concentration is 0.1%. The cells were maintained in 5% CO2 at 37° C. for 4 days. The viability of cells was determined by MTT assays. The IC50 of a given compound was calculated by fitting the dose response curve with a four parameter logistic equation.

Chain of FASN enzyme (P49327 whole entry): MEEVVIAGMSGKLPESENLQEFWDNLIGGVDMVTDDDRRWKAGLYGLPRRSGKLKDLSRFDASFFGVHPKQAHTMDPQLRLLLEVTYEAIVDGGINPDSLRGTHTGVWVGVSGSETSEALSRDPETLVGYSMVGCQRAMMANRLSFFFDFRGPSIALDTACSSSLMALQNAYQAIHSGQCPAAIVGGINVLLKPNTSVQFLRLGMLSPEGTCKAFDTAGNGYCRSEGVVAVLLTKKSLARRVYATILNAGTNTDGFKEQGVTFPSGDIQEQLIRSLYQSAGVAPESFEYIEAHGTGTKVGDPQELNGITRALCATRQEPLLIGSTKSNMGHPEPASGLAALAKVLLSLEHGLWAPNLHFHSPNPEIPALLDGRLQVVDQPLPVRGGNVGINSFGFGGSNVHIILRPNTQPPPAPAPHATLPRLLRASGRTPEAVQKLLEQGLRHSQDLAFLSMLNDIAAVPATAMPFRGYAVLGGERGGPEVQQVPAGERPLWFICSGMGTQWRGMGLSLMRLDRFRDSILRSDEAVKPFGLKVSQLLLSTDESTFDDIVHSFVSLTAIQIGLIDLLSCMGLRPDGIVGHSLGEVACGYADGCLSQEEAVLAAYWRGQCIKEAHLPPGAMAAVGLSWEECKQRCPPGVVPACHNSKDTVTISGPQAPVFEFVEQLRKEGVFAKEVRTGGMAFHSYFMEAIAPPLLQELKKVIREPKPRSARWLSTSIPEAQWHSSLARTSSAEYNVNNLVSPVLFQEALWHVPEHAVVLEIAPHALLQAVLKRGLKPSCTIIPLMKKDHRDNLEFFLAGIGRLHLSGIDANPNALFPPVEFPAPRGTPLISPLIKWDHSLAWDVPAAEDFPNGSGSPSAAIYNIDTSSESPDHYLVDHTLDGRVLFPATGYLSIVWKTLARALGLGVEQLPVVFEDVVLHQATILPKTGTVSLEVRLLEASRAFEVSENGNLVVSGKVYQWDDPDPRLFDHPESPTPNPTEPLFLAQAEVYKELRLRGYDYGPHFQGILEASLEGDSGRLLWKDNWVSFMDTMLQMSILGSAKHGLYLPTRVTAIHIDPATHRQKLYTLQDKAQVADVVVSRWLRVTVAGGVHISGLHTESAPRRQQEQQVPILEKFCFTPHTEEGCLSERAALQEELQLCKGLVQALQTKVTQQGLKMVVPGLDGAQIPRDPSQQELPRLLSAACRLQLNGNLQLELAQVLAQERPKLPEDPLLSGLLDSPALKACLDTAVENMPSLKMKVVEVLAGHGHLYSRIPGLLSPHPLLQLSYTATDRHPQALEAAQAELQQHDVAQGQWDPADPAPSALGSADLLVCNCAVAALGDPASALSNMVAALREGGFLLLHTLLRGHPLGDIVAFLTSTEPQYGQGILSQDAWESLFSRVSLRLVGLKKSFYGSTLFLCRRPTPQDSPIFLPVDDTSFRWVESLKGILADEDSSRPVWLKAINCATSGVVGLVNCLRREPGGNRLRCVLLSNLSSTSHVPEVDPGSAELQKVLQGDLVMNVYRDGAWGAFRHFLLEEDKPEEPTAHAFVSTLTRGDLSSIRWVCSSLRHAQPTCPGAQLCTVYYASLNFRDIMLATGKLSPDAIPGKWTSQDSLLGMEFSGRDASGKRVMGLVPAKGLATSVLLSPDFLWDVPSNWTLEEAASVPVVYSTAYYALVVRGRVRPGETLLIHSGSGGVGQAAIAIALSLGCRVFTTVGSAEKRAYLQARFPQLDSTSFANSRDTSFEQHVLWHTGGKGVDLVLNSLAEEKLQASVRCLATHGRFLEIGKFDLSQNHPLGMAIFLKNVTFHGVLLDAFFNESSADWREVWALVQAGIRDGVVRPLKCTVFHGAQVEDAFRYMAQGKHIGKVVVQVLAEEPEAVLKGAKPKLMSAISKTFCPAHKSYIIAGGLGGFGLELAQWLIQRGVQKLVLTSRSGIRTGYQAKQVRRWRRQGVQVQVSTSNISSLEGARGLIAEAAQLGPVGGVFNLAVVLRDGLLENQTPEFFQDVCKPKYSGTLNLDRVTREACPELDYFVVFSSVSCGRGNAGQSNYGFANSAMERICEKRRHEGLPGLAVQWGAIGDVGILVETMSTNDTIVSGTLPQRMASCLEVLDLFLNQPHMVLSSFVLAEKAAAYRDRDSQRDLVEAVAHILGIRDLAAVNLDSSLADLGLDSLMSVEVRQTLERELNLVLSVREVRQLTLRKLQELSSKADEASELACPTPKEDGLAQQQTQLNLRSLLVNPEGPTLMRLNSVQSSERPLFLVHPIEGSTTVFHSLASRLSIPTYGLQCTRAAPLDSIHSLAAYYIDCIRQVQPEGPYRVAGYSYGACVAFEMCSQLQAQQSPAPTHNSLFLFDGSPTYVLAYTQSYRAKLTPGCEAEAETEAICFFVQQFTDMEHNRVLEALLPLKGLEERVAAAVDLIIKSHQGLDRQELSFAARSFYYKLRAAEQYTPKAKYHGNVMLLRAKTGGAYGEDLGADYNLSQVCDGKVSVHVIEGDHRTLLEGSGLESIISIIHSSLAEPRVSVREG

pIC50 [1] | IC50 [2] [µM] | pIC50 ([1]; FASN enzymatic assay, Table 2-2) | SMILES
> 6.30 | < 0.5 | – | CC(C)S(=O)(=O)Nc1cccc(-c2ccc(C(=O)N3CCN(C(=O)C4(O)CC4)CC3)cc2)c1
> 6.30 | < 0.5 | – | O=C(c1ccc(-c2cnc3ccccc3c2)c(F)c1)N1CCN(C(=O)C2(O)CC2)CC1 [1-[(4-{[3-fluoro-4-(quinolin-3-yl)phenyl]carbonyl}piperazin-1-yl)carbonyl]cyclopropan-1-ol]
> 6.30 | < 0.5 | – | O=C(c1ccc(-c2ccc3nsnc3c2)cc1)N1CCN(C(=O)C2(O)CC2)CC1 [1-[(4-{[4-(2,1,3-benzothiadiazol-5-yl)phenyl]carbonyl}piperazin-1-yl)carbonyl]cyclopropan-1-ol]
> 6.30 | < 0.5 | – | Cn1cc2ccc(-c3ccc(C(=O)N4CCN(C(=O)C5(O)CC5)CC4)cc3)cc2n1 [1-[(4-{[4-(2-methyl-2H-indazol-6-yl)phenyl]carbonyl}piperazin-1-yl)carbonyl]cyclopropan-1-ol]
> 6.30 | < 0.5 | – | O=C(c1ccc(-c2ccc3[nH]ccc3n2)cc1)N1CCN(C(=O)C2(O)CC2)CC1 [1-({4-[(4-{1H-pyrrolo[3,2-b]pyridin-5-yl}phenyl)carbonyl]piperazin-1-yl}carbonyl)cyclopropan-1-ol]
> 6.30 | < 0.5 | – | O=C(c1ccc(-c2ccc3occc3c2)cc1)N1CCN(C(=O)C2(O)CC2)CC1 [1-[(4-{[4-(1-benzofuran-5-yl)phenyl]carbonyl}piperazin-1-yl)carbonyl]cyclopropan-1-ol]
– | < 0.5 | 5.30 to 6.30 | O=C(c1ccc(-c2ccc3c(ccn3C(F)(F)F)c2)cc1)N1CCN(C(=O)C2(O)CC2)CC1 [1-{[4-({4-[1-(trifluoromethyl)-1H-indol-5-yl]phenyl}carbonyl)piperazin-1-yl]carbonyl}cyclopropan-1-ol]
> 6.30 | < 0.5 | – | O=C(c1ccc(-c2cc(Cl)ccc2F)cc1)N1CCN(C(=O)C2(O)CC2)CC1 [1-[(4-{[4-(5-chloro-2-fluorophenyl)phenyl]carbonyl}piperazin-1-yl)carbonyl]cyclopropan-1-ol]
> 6.30 | < 0.5 | – | O=C(c1ccc(-c2cccc3[nH]ccc23)cc1)N1CCN(C(=O)C2(O)CC2)CC1 [1-[(4-{[4-(1H-indol-4-yl)phenyl]carbonyl}piperazin-1-yl)carbonyl]cyclopropan-1-ol]
> 6.30 | < 0.5 | – | COc1ccc2nc(-c3ccc(C(=O)N4CCN(C(=O)C5(O)CC5)CC4)cc3)ccc2c1 [1-[(4-{[4-(6-methoxyquinolin-2-yl)phenyl]carbonyl}piperazin-1-yl)carbonyl]cyclopropan-1-ol]
> 6.30 | < 0.5 | – | O=C(c1ccc(-c2ccc3cnccc3c2)cc1)N1CCN(C(=O)C2(O)CC2)CC1 [1-[(4-{[4-(isoquinolin-6-yl)phenyl]carbonyl}piperazin-1-yl)carbonyl]cyclopropan-1-ol]
> 6.30 | < 0.5 | – | CS(=O)(=O)Nc1cccc(-c2ccc(C(=O)N3CCN(C(=O)C4(O)CC4)CC3)cc2)c1 [N-{3-[4-({4-[(1-hydroxycyclopropyl)carbonyl]piperazin-1-yl}carbonyl)phenyl]phenyl}methanesulfonamide]
> 6.30 | < 0.5 | – | O=C(c1ccc(-c2cnc3ccccc3c2)cc1Cl)N1CCN(C(=O)C2(O)CC2)CC1
> 6.30 | < 0.5 | – | O=C(c1ccc(-c2ccc3ncsc3c2)cc1)N1CCN(C(=O)C2(O)CC2)CC1 [1-[(4-{[4-(1,3-benzothiazol-6-yl)phenyl]carbonyl}piperazin-1-yl)carbonyl]cyclopropan-1-ol]
> 6.30 | < 0.5 | – | O=C(c1ccc(-c2ccc3occc3n2)cc1)N1CCN(C(=O)C2(O)CC2)CC1 [1-({4-[(4-{furo[3,2-b]pyridin-5-yl}phenyl)carbonyl]piperazin-1-yl}carbonyl)cyclopropan-1-ol]
> 6.30 | < 0.5 | – | Cn1ncc2ccc(-c3ccc(C(=O)N4CCN(C(=O)C5(O)CC5)CC4)cc3)cc21 [1-[(4-{[4-(1-methyl-1H-indazol-6-yl)phenyl]carbonyl}piperazin-1-yl)carbonyl]cyclopropan-1-ol]
